Common to all, as to type: in vivo
For data set [1], the system named is Aβ25-35 oligomer-intoxicated mice. Description: Morris water maze test, neuroprotection design. The settings on record: 0.3 mg/Kg, probe test. How it is done: The neuroprotective effect of the compounds, i.e. the ability thereof to protect cells from Aβ25-35 oligomer neurotoxicity and neurodegeneration, is also tested (FIG. 10). The test compounds are thus administered on the same day as the injection of the Aβ25-35 oligomers and are continued to be administered on a daily basis up to day 7 after the injection of the oligomers, at which time the mice are subjected to the YMT, PAT, MWT or ORT. The brain's anatomy is analysed and neuronal cells are counted by immunohistochemistry on mice sacrificed at D13. The biochemical analyses for the quantification of markers of oxidative stress and apoptosis were carried out at D16 on a group of mice that had been subjected to the WMT (FIG. 10).
This test is used to assess long-term spatial reference memory. […] The animals' swimming behaviour was recorded (Videotrack® software, Viewpoint), and the trajectories, latencies and distances covered were measured. […] Median latency (time taken to find the platform) was calculated for each training day and expressed for the group as the mean latency±standard deviation. […] Each mouse was left in the water for 60 seconds and its swimming behaviour was recorded. The time spent in the north-eastern quadrant, which originally contained the platform (T), was measured and compared to the average time spent in the other quadrants (o).

For data set [2], the system named is non-intoxicated mice. Kind of data set: Y-maze, amnestic effect in non-intoxicated mice. The following applies: 10 mg/Kg i.p. How it is done:
The spontaneous alternation test was used to assess spatial working memory (very short-term memory) in rodents. The maze was made of grey opaque polyvinylchloride (PVC). Each arm was 40 cm long, 13 cm high, 3 cm wide at the bottom, and 10 cm wide at the top. The arms converged towards one another at an equal angle between the different arms. In brief, each mouse was placed at the end of one arm and allowed to move freely during an 8 min session. The mouse's entries into each arm, including the arm at whose end it was placed, are recorded. An alternation is defined as the animal's successive entry into three different arms. The number of maximum alternations is thus the total number of entries into each arm minus 2 and the percentage of alternation was calculated according to the formula: % Alt=number of actual alternations/maximum number of alterations×100
The parameters measured included the percentage of alternations (memory index) and the total number of entries into the arms of the maze (exploration index, Maurice et al., 1994, 1996; Meunier et al., 2006, 2013; Villard et al., 2009, 2011). Data from the animals showing extreme behaviour (percentage of alternation <25% or >90%, or a number of entries less than 10) were excluded from the calculations. The attrition rate was routinely 5%. Under normal conditions, a mouse will spontaneously alternate exploring each of the arms. A mouse with impaired memory and/or orientation abilities will have a lower percentage of alternations.
In this experiment, memantine and FENM were administered at a dose of 10 mg/Kg i.p. and the performance of the mice was tested using the passive avoidance test and the Y-maze with non-intoxicated mice.

The subject of data set [3] is non-intoxicated mice. Description: Passive avoidance test, amnestic effect in non-intoxicated mice. The settings on record: 10 mg/Kg i.p. From the text: (§1) This test measures non-spatial (contextual) long-term memory. The apparatus used for this test was a box with two compartments (15×20×15 cm high), one illuminated with white PVC walls and the other in the dark with black PVC walls and a grid floor. A guillotine door separated the compartments. A 60 W lamp was positioned 40 cm above the box and illuminated the white compartment. Electric shocks (0.3 mA for 3 s) could be delivered to the grid floor using a generator (Lafayette Instruments, Lafayette, USA). The test comprised a training session and a test session. The guillotine door was closed during the training session. Each mouse was placed in the white compartment. After 5 seconds, the door was raised. When the mouse entered the darkened compartment and placed all four feet in contact with the grid floor, the door was closed and the electric shocks were delivered for 3 seconds. The time taken by the mouse to re-enter the darkened compartment (STL-Tg) and the number of vocalizations were recorded. The test session was conducted 24 hours after the training session. Each mouse was placed back into the illuminated white compartment. After 5 s the door was raised, the step-through latency (STL-R), i.e. the time it took the mouse to enter the darkened compartment, was measured. The maximum duration was 300 s. Mice with a STL-Tg>30 s or a STL-Tg and a STL-R<10 s were not considered for the test. […]

The test system of data set [4] is Aβ25-35 oligomer-intoxicated mice. Kind of data set: Passive avoidance test, symptomatic treatment. The following applies: symptomatic design; for improvement in cognitive impairment in the passive avoidance test, effective doses: doses 0.1, 0.3, 1.0, 3 and 10 mg/Kg i.p.; for aggravating effect on amnestic symptoms in the passive avoidance test: intoxicated mice, memantine at 10 mg/Kg. Here is the method: The test compounds were tested for their ability to decrease the cognitive symptoms of Aβ25-35 oligomer-induced neurodegeneration, i.e. their ability to provide symptomatic anti-amnestic treatment (FIGS. 1A and 1B). In brief, to test the symptomatic effect of the test compounds, they were administered 8 days after the icy injection of the Aβ25-35 oligomers, 30 minutes before the YMT and PAT memory tests were conducted or 30 minutes before the test, but after the training session, in the case of the MWT or ORT (FIG. 1A). The Hamlet Test® (FIG. 1B) involves a 2-week training session (4 hr/day) followed by a test (max. 10 min) under water deprivation conditions and under normal conditions; the Aβ25-35 peptide is injected after this first test. After one week, the compounds are administered and a second test under water deprivation conditions and under normal conditions is performed 30 min after injection. This test measures spatial-temporal disorientation, a major warning sign in Alzheimer's disease (Crouzier et al., 2018).
as §1, with “test. The attrition rate was routinely 5% (Meunier et al., 2006, 2013; Villard et al., 2009, 2011). A mouse with impaired memory abilities will have a lower STL-R than a mouse with normal abilities.” for “test.”

Data on two molecules can be found in patent publication US12611387B2, “Compound and composition for inducing neuroprotection” (REST THERAPEUTICS, priority 2020, dated 2026).

With `NC12CC3CC(C1)CC(CCF)(C3)C2` [FENM, 3-(2-fluoroethyl)adamantan-1-amine], the “time spent in the training quadrant (learning and long-term spatial memory)” value in data set [1] was “maintained their learning and memory abilities”. In the data set on non-intoxicated mice [2], the “Alternation (%)” value is listed as 63.7 ± 4.2% and the Number of entries was 32.7 ± 3.4. Moreover, the “Latency” value in the data set with non-intoxicated mice [3] is 183.0 ± 38.4 s. Moreover, in data set [4], the “improvement in cognitive impairment in the passive avoidance test, effective doses” value is “effective at 0.1; 0.3 and 1 mg/Kg”; the “aggravating effect on amnestic symptoms in the passive avoidance test” value is reported as “does not exert an aggravating effect on amnestic symptoms”.

Regarding `CC12CC3CC(C)(C1)CC(N)(C3)C2` [memantine, 3,5-Dimethyl-1-adamantanamine, reference compound], the “time spent in the training quadrant (learning and long-term spatial memory)” value in data set [1] was “did not prevent the impairment of learning and memory functions”. In addition, in the data set on non-intoxicated mice [2], the “Alternation (%)” value amounted to 48.8 ± 3.0 % and the Number of entries is reported as 28.2 ± 2.9. Besides, in the data set with non-intoxicated mice [3], the “Latency” value is reported as 56.0 ± 31.1 s. Further, in data set [4], the “improvement in cognitive impairment in the passive avoidance test, effective doses” value is “significant improvement in cognitive impairment by memantine was observed at the 0.3 mg/Kg memantine dose only” and the “aggravating effect on amnestic symptoms in the passive avoidance test” value is listed as “worsens the cognitive symptoms of intoxicated mice when injected at 10 mg/Kg”.
